Reference: patent publication US6995263B2, “Indolyl and dihydroindolyl derivatives, their manufacture and use as pharmaceutical agents” (Hoffmann-La Roche Inc., priority 2003, dated 2006)

Columns and labels:
PPARδ = target: T1, PPARδ (Homo sapiens, UniProt Q03181); assay: Radioligand binding assay (SPA), PPARδ receptor binding; settings: GST-PPARδ-LBD fusion protein, scintillation proximity counting
T1 construct: PPARδ (aa 139 to 442); made in house; host or cells: E. coli BL21(pLysS)
T1 sequence (Q03181 139-441 limits assumed): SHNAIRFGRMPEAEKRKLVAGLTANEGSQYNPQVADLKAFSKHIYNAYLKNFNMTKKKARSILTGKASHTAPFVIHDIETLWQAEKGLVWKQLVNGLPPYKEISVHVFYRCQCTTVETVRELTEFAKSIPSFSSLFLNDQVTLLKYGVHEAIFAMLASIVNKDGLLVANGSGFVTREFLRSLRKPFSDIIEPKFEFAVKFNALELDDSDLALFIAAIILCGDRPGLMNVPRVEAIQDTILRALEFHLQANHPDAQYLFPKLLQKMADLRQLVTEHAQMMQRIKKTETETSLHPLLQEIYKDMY
Excerpt: (§1) Background information on the performed assays can be found in: Nichols J S et al. “Development of a scintillation proximity assay for peroxisome proliferator-activated receptor gamma ligand binding domain”, (1998) Anal. Biochem. 257:112–119.
(§2) Full-length cDNA clones for humans PPARδ and PPARα and mouse PPARγ were obtained by RT-PCR from human adipose and mouse liver cRNA, respectively, cloned into plasmid vectors and verified by DNA sequencing. Bacterial and mammalian expression vectors were constructed to produce glutathione-s-transferase (GST) and Gal4 DNA binding domain proteins fused to the ligand binding domains (LBD) of PPARδ (aa 139 to 442), PPARγ (aa 174 to 476) and PPARα (aa 167 to 469). To accomplish this, the portions of the cloned sequences encoding the LBDs were amplified from the full-length clones by PCR and then subcloned into the plasmid vectors. Final clones were verified by DNA sequence analysis.
(§3) Induction, expression, and purification of GST-LBD fusion proteins were performed in E. coli strain BL21(pLysS) cells by standard methods (Ref: Current Protocols in Molecular Biology, Wiley Press, edited by Ausubel et al.).
PPARδ receptor binding was assayed in HNM10 (50 mM Hepes, pH 7.4, 10 mM NaCl, 5 mM MgCl2, 0.15 mg/ml fatty acid-free BSA and 15 mM DTT). For each 96 well reaction a 500 ng equivalent of GST-PPARδ-LBD fusion protein and radioligand, e.g. 20000 dpm {2-methyl-4-[4-methyl-2-(4-trifluoromethyl-phenyl)-thiazol-5-yl-ditritiomethylsulfanyl]-phenoxy}-acetic acid, was bound to 10 μg SPA beads (PharmaciaAmersham) in a final volume of 50 μl by shaking. The resulting slurry was incubated for 1 h at RT and centrifuged for 2 min at 1300 g. […] Radioligand was added and the reaction incubated at RT for 1 h and scintillation proximity counting performed in the presence of test compounds was determined. All binding assays were performed in 96 well plates and the amount of bound ligand was measured on a Packard TopCount using OptiPlates (Packard). […]

PPARγ = target: T2, PPARγ (Mus musculus, UniProt P37238); assay: Radioligand binding assay (SPA), PPARγ receptor binding; settings: GST-PPARγ-LBD fusion protein, scintillation proximity counting
T2 construct: PPARγ (aa 174 to 476); made in house; host or cells: E. coli BL21(pLysS)
T2 sequence (P37238 174-475 isoform P37238-2): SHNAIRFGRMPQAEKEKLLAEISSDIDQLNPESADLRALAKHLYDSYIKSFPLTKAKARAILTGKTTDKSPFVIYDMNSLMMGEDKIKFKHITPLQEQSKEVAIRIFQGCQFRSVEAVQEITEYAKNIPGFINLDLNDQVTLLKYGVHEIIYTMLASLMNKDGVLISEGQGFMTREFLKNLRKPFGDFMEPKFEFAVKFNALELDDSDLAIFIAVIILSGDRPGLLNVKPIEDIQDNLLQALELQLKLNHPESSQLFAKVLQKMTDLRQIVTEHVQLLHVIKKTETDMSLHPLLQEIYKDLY
Excerpt: as §1, §2, §3
(§4) PPARγ receptor binding was assayed in TKE50 (50 mM Tris-HCl, pH 8, 50 mM KCl, 2 mM EDTA, 0.1 mg/ml fatty acid-free BSA and 10 mM DTT). For each 96 well reaction an 140 ng equivalent of GST-PPARγ-LBD fusion protein was bound to 10 μg SPA beads (PharmaciaAmersham) in a final volume of 50 ul by shaking. The resulting slurry was incubated for 1 h at RT and centrifuged for 2 min at 1300 g. The supernatant containing unbound protein was removed and the semidry pellet containing the receptor-coated beads was resolved in 50 ul of TKE. […] All binding assays were performed in 96 well plates and the amount of bound ligand measured on a Packard TopCount using OptiPlates (Packard). Nonspecific binding was determined in the presence of 10^−4 M unlabelled compound. […]

PPARα = target: T3, PPARα (Homo sapiens, UniProt Q07869); assay: Radioligand binding assay (SPA), PPARα receptor binding; settings: GST-PPARα-LBD fusion protein, scintillation proximity counting
T3 construct: PPARα (aa 167 to 469); made in house; host or cells: E. coli BL21(pLysS)
T3 sequence (Q07869 167-468 limits assumed): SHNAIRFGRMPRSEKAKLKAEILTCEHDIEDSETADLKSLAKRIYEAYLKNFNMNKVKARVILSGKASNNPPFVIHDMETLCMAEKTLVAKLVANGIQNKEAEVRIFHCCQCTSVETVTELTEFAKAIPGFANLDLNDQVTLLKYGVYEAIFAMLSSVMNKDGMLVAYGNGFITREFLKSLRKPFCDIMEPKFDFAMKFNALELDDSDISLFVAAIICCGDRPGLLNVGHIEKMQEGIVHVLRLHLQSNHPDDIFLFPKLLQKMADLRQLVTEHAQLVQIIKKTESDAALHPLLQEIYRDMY
Excerpt: as §1, §2, §3
as §4, with “PPARα receptor” for “PPARγ receptor”, “of GST-PPARα-LBD” for “of GST-PPARγ-LBD”, “50 μl” for “50 ul”

## Cc1nc(-c2ccc(C(F)(F)F)cc2)ccc1COc1ccc2c(c1)N(CC(=O)O)CC2 [Example 6, {6-[2-Methyl-6-(4-trifluoromethyl-phenyl)-pyridin-3-ylmethoxy]-2,3-dihydro-indol-1-yl}-acetic acid]
PPARδ
  IC50: 17 nM
PPARγ
  IC50: > 10000 nM
PPARα
  IC50: 1580 nM

## Cc1nc(-c2ccc(C(F)(F)F)cc2)ncc1COc1ccc2c(ccn2CC(=O)O)c1 [Example 2, {5-[4-Methyl-2-(4-trifluoromethyl-phenyl)-pyrimidin-5-ylmethoxy]-indol-1-yl}-acetic acid]
PPARδ
  IC50: 83 nM
PPARγ
  IC50: > 10000 nM
PPARα
  IC50: 1320 nM

## O=C(O)Cn1ccc2ccc(OCc3cnc(-c4ccc(C(F)(F)F)cc4)nc3C3CC3)cc21 [Example 7, {6-[4-Cyclopropyl-2-(4-trifluoromethyl-phenyl)-pyrimidin-5-ylmethoxy]-indol-1-yl}-acetic acid]
PPARδ
  IC50: 1 nM
PPARγ
  IC50: > 10000 nM
PPARα
  IC50: 211 nM
